In patent EP0624588A1, “New quinoline derivatives with pharmacological activity” (J. URIACH & CIA. S.A., priority 1993, dated 1994):

How the values were obtained:
[1] = test system: LTB₄ production by human granulocytes (HL-60 cells); experiment: Inhibition of LTB4 production by human granulocytes; type: cell-based; conditions: differentiated HL-60 cells stimulated by calcium ionophore A23187 (5 x 10⁻⁶M), LTB₄ by EIA, read-out: % inh. of LTB₄ production (at 5 µM)
Protocol: Human promyelocytes (HL-60 cells) are grown in a RPMI 1640 medium suplemented with 20% heat-inactivated fetal bovine serum, 50 U/mL penicillin and 50 µg/mL streptomycin under an atmosphere of 5% CO₂ at 37°C. Cells are exposed to 1.3% DMSO for 5 days in order to differentiate them into mature granulocytes and then are washed and resuspended in Dubelcco's phosphate-buffered saline at 10⁶ cells/mL. HL-60 (10⁶ cells/mL) are incubated for 15 min at 37°C in the presence or absence (vehicle only) of test compound. Cells are then stimulated by calcium ionophore A23187 (5 x 10⁻⁶M) for 15 min. LTB₄ secreted into the external medium is measured by EIA (enzymo immunoassay) using a commercially available LTB₄-EIA kit. Results are expressed as the percent inhibition of LTB₄ production as compared to controls.

[2] = test system: platelet aggregation induced by PAF; experiment: Inhibition of platelet aggregation induced by PAF; type: cell-based, New Zealand albino rabbits; conditions: Oryctolagus cuniculus; rabbit platelet rich plasma, PAF (C₁₈) 15 nM, Born nephelometric technique; read-out: IC₅₀
Protocol: Blood is obtained by cardiac puncture of male New Zealand albino rabbits (b.w. 2-2.5 Kg) and coagulation is prevented by adding 1 part of 3.16% sodium citrate dihydrate in 9 parts of blood. Platelet rich plasma (PRP) is prepared by centrifuging the blood at 250xg for 10 min. at 4°C and then it is diluted with platelet poor plasma (PPP) obtained by further centrifuging at 3000xg for 10 min. The platelet count is adjusted to 3x10⁵/mm³. Platelet aggregation induced by PAF (C₁₈, prepared in our laboratory) (15 nM) is determined by the Born nephelometric technique (J. Physiol., 1962, 162, 67) using an aggregometer Chrono-log 500. The activities of the inhibitors are expressed as the IC₅₀ value, that is to say the concentration of drug needed to inhibit platelet aggregation by 50%.

Structure (SMILES)	inhibition at 5 µM [1] [%]	IC50 [2] [nM]
Cc1nnc2n1-c1sc3c(c1C(c1ccccc1Cl)=NC2C)CCN(C(=O)c1cccc(OCc2ccc4ccccc4n2)c1)C3 (stereo not drawn) [Compound 1, 6-(2-Chlorophenyl)-1,4-dimethyl-9-[3-(2-quinolylmethoxy)benzoyl]-7,8,9,10-tetrahydro-4H-pyrido[4',3': 4,5]thieno[3,2-f] [1,2,4]triazolo[4,3-a] [1,4]diazepine]	72	32
Cc1nnc2n1-c1sc3c(c1C(c1ccccc1Cl)=NC2C)CCN(C(=O)Cc1ccc(OCc2ccc4ccccc4n2)cc1)C3 (stereo not drawn) [Compound 2, 6-(2-Chlorophenyl)-1,4-dimethyl-9-[4-(2-quinolylmethoxy)phenylacetyl]-7,8,9,10-tetrahydro-4H-pyrido[4',3': 4,5]thieno[3,2-f] [1,2,4]triazolo[4,3-a] [1,4]diazepine]	–	16
